Laboratory results from patent US11649220B2 (DEMOTECH.INC., priority 2018, dated 2023).

Key:
[1] = In vitro free radical inhibition test (DPPH method); conditions: 8 μL of 20 mmol/L compound in 1 mL DPPH 0.059 mg/mL ethanol, 60 min dark, 517 nm; for inhibition rate %: DPPH; for Relative inhibition ability on free radicals: inhibition rate of AGI1067 on DPPH defined as 100
Text: 1. In Vitro Free Radical Inhibition Test (DPPH Method)
The single electron of DPPH radical has a strong absorption at […], and its alcohol solution is purple. In the presence of a free radical scavenger, the absorption of DPPH radical is weakened or disappeared for the reason that the free radical scavenger is paired with the single electron of DPPH radical, and the degree of discoloration is quantitatively related to the number of electrons DPPH radical receives. Therefore, a spectrophotometer can be used to quickly and quantitatively analyze the free radical scavenging rate of the compound.
1) 1 mL solution of DPPH in absolute ethanol (concentration: 0.059 mg/mL) was taken; 2) 8 μL of the compound to be tested (20 mmol/L) were added; 3) after mixing well, the resultant was kept in dark at room temperature for 60 minutes, 4) the absorbance of the sample at 517 nm was measured.

[2] = tested on: golden hamsters (60% high-fat food, STZ induced); test: Golden hamster disease model, animal model induction group (16-week-old group): blood biochemical indexes and body weight; assay type: in vivo; conditions: for change rate of blood glucose %: 0.1 mL of 6.8 mg/mL DMSO solution + 0.25 mL whole milk by gavage once a day for 2 weeks; for change rate of body weight after deduction of DMSO blank %: DMSO blank deducted; for average body weight after administration/g / change of body weight/g / change rate of body weight %: after gavage once a day for 2 weeks; for HDL % / LDL % / total cholesterol % / triglyceride %: change rate, gavage once a day for 2 weeks
Protocol: Animals and feed: 1) 8-week-old male golden hamsters with a body weight range of 100±5 g were selected; 2) 60% high-fat food; 3) 30% high-fat food; 4) general feed: NRC standard feed, containing 5% fat, total calories 4200 kcal/kg.
Animal model induction group (16-week-old group): 1) fed with 60% high-fat food for 2 weeks under standard environment; 2) STZ intraperitoneal injection twice every two days, 50 mg/kg each time; 3) After STZ induction, the golden hamsters were continuous fed for 1 week; 4) Blood was taken from the ocular venous plexus, and the initial body weight, blood glucose, total cholesterol, LDL-c, HDL-c and triglyceride were measured, and the golden hamsters were grouped in parallel according to animal biochemical indicators, 8 in each group; 5) Gavage of compounds: 0.1 mL of solution of compound (concentration: 6.8 mg/mL, DMSO solution) and 0.25 mL of whole milk were mixed evenly and administrated by gavage once a day for 2 weeks; 6) Blank control: 0.1 mL of DMSO and 0.25 mL of whole milk were mixed evenly and administrated by gavage once a day for 2 weeks; 7) Observation time: 14 days later, blood was taken from the ocular venous plexus, and the body weight, blood glucose, total cholesterol, LDL-c, HDL-c and triglyceride were measured.
Instruments: Shimadzu UV-1750 spectrophotometer, clinical determination kit (Changchun Huili Biotechnology Co., Ltd.)
Determination of blood glucose: glucose oxidase method, kit
Determination of total cholesterol (COD-PAP method), kit
Determination of low density lipoprotein cholesterol (direct method), kit
Determination of triglyceride (GP-PAP method)
Determination of high density lipoprotein (direct method), kit

[3] = tested on: Malondialdehyde (MDA) in serum; test: In vivo anti-lipid oxidation experiment (serum MDA, TBA method); design: inhibition rate %: concentration or dose not given beside the values; conditions: MAD lipid peroxidation in vivo; for inhibition rate %: relative to solvent DMSO and Chow averages; for avarage value of OD: serum, TBA method, 532 nm
Text: Experimental principle: Malondialdehyde (MDA) in liposome degradation products could condense with thiobarbituric acid (TBA) to form a red product which has a maximum absorption peak at 532 nm. The spectrophotometer was used to measure the relative absorption value to calculate the antioxidant value.
Reagents: Malondialdehyde (MDA) test kit (article number: A003-1, […], Nanjing Jiancheng), glacial acetic acid of analytically pure grade.
Reagent preparations: 1) Reagent I: Reagent 1 in the kit was taken out from the refrigerator and subjected to natural warming until a transparent liquid is obtained; 2) Reagent II: 170 mL of double-distilled water was added to each bottle and mixed; 3) Reagent III: A dry powder in the kit was dissolved in 60 mL of double-distilled water at 90 to 100° C. After the dry powder was dissolved totally, 30 mL of glacial acetic acid was added and kept in dark place; 4) Standard: 10 nmol/mL tetraethoxypropane.
Experimental procedures: 1) Blank tube: To 2 mL centrifuge tube were added anhydrous ethanol (70 μl), Reagent I (70 μl), Reagent II (0.8 mL) and Reagent III (0.8 mL) in sequence; 2) Standard tube: To 2 mL centrifuge tube were added standard (70 μl), Reagent I (70 μl), Reagent 11 (0.8 mL) and Reagent III (0.8 mL) in sequence; 3) Measuring tube: To 2 mL centrifuge tube were added the serum to be tested and physiological saline (the total volume of serum and physiological saline is 70 μl), Reagent I (70 μl), Reagent II (0.8 mL) and Reagent III (0.8 mL) in sequence; 4) Control tubes: all samples are set up with corresponding control tubes. To a 2 mL centrifuge tube were added the serum to be tested and physiological saline (the total volume of serum and physiological saline is 70 μl), Reagent I (70 μl), Reagent II (0.8 mL) and 50% glacial acetic acid (0.8 mL) in sequence.
After the above reagents were added, the mixture was mixed homogenously. Then the mixture was left in the water bath at 95° C. for 60 minutes. The sample was centrifuged at 4000 rpm for 10 minutes. The supernatant was taken for the measurement of the OD value.
Experimental data processing: the MDA content in serum was calculated as follows: MDA=(OD valuemeasured−OD valuecontrol)/OD valuestandard*concentration of the standard Inhibition rate %=100−(ODsample-average value−average value of Chow)/(average value of the solvent DMSO−average value of Chow)*100

With `CC(C)(Sc1cc(C(C)(C)C)c(O)c(C(C)(C)C)c1)Sc1cc(C(C)(C)C)c(O)c(C(C)(C)CCOC(=O)CCC(=O)O)c1` [Compound 11, 4-(3-(3-(tert-butyl)-5-((2-((3,5-di-tert-butyl-4-hydroxyphenyl)thio)propan-2-yl)thio)-2-hydroxyphenyl)-3-methylbutoxy)-4-oxobutanoic acid] the inhibition rate % [1] was 19.9%, the “Relative inhibition ability on free radicals” value [1] was 45.5 and the “change rate of blood glucose %” value [2] was 35.3%. The “change rate of body weight after deduction of DMSO blank %” value (“change rate … of DMSO blank %” below) [2] was −5.5%, the “average body weight after administration/g” value (shortened to “average body weight”) [2] was 140.9 g and the “change of body weight/g” value [2] was 5.8 g. The “change rate of body weight %” value [2] was 4.3%, the HDL % [2] was 49.7% and the LDL % [2] was −8.1%. The total cholesterol % [2] was −0.4%, the triglyceride % [2] was 8.7% and the inhibition rate % [3] was 44.7%. The “avarage value of OD” value [3] was 7.56.
In the case of `CC(C)(Sc1cc(C(C)(C)C)c(O)c(C(C)(C)C)c1)Sc1cc(C(C)(C)C)c(O)c(C(C)(C)CCNC(=O)CCCCC2CCSS2)c1` (stereo not drawn) [Compound 23, N-(3-(3-(tert-butyl)-5-((2-((3,5-di-tert-butyl-4-hydroxyphenyl)thio)propan-2-yl)thio)-2-hydroxyphenyl)-3-methylbutyl)-5-(1,2-dithiolan-3-yl)pentanamide], the inhibition rate % [1] is reported as 12.1%, the “Relative inhibition ability on free radicals” value [1] is reported as 27.7 and the “change rate of blood glucose %” value [2] is reported as 19.5%. For the same molecule, the “change rate … of DMSO blank %” value [2] was −3.8%, the “average body weight” value [2] was 147.2 g and the “change of body weight/g” value [2] was 8.3 g. For the same molecule, the “change rate of body weight %” value [2] was 6.0%, the HDL % [2] was 102.1% and the LDL % [2] was −11.2%. It also gave a total cholesterol % [2] of −6.4%, a triglyceride % [2] of 21.9% and an inhibition rate % [3] of 82.6%. The “avarage value of OD” value [3] was 6.10.
For `CC(C)(Sc1cc(C(C)(C)C)c(O)c(C(C)(C)C)c1)Sc1cc(C(C)(C)C)c(O)c(C(C)(C)CCOCCN2CCOCC2)c1` [Compound 18, 2,6-di-tert-butyl-4-((2-((3-(tert-butyl)-4-hydroxy-5-(2-methyl-4-(2-morpholinoethoxy)butan-2-yl)phenyl)thio)propan-2-yl)thio)phenol], the inhibition rate % [1] was 23.5%, the “Relative inhibition ability on free radicals” value [1] was 53.8 and the inhibition rate % [3] was 53.8%. The “avarage value of OD” value [3] was 7.21.
For `CC(C)(SCC(=O)O)Sc1cc(C(C)(C)C)c(O)c(C(C)(C)C)c1` [Compound 2, 2-((2-((3,5-di-tert-butyl-4-hydroxyphenyl)thio)propan-2-yl)thio)acetic acid], the inhibition rate % [1] was 27.1%, the “Relative inhibition ability on free radicals” value [1] was 62.1 and the inhibition rate % [3] was 73.5%. The “avarage value of OD” value [3] was 6.45.
For `CC(=O)Oc1ccccc1C(=O)OCCC(C)(C)c1cc(SC(C)(C)Sc2cc(C(C)(C)C)c(O)c(C(C)(C)C)c2)cc(C(C)(C)C)c1O` [Compound 13, 3-(3-(tert-butyl)-5-((2-((3,5-di-tert-butyl-4-hydroxyphenyl)thio)propan-2-yl)thio)-2-hydroxyphenyl)-3-methylbutyl 2-acetoxybenzoate], the inhibition rate % [1] was 34.1%, the “Relative inhibition ability on free radicals” value [1] was 78.2 and the “change rate of blood glucose %” value [2] was −3.9%. The “change rate … of DMSO blank %” value [2] was −7.8%, the “average body weight” value [2] was 136.6 g and the “change of body weight/g” value [2] was 2.6 g. For the same molecule, the “change rate of body weight %” value [2] was 2.0%, the HDL % [2] was 57.9% and the LDL % [2] was −6.7%. For the same molecule, the total cholesterol % [2] was −9.0%, the triglyceride % [2] was −10.0% and the inhibition rate % [3] was 53.8%. For the same molecule, the “avarage value of OD” value [3] was 7.21.
In the case of `COC(=O)CN(CCC(C)(C)c1cc(SC(C)(C)Sc2cc(C(C)(C)C)c(O)c(C(C)(C)C)c2)cc(C(C)(C)C)c1O)CC(=O)OC` [Compound 22, dimethyl 2,2′-((3-(3-(tert-butyl)-5-((2-((3,5-di-tert-butyl-4-hydroxyphenyl)thio)propan-2-yl)thio)-2-hydroxyphenyl)-3-methylbutyl)azanediyl)diacetate], the inhibition rate % [1] is reported as 42.6%, the “Relative inhibition ability on free radicals” value [1] is reported as 97.6 and the inhibition rate % [3] is reported as 36.2%. For the same molecule, the “avarage value of OD” value [3] was 7.89.
In the case of `CC(N)C(=O)OCCC(C)(C)c1cc(SC(C)(C)Sc2cc(C(C)(C)C)c(O)c(C(C)(C)C)c2)cc(C(C)(C)C)c1O` (stereo not drawn) [Compound 20, 3-(3-(tert-butyl)-5-((2-((3,5-di-tert-butyl-4-hydroxyphenyl)thio)propan-2-yl)thio)-2-hydroxyphenyl)-3-methylbutyl alaninate], the inhibition rate % [1] is reported as 26.3%, the “Relative inhibition ability on free radicals” value [1] is reported as 38.9 and the inhibition rate % [3] is reported as 30.7%. For the same molecule, the “avarage value of OD” value [3] was 8.10.
In the case of `CCOC(=O)CCSC(C)(C)Sc1cc(C(C)(C)C)c(O)c(C(C)(C)C)c1` [Compound 3, ethyl 3-((2-((3,5-di-tert-butyl-4-hydroxyphenyl)thio)propan-2-yl)thio)propionate], the inhibition rate % [1] is reported as 43.7%, the “Relative inhibition ability on free radicals” value [1] is reported as 100.2 and the inhibition rate % [3] is reported as 34.9%. The “avarage value of OD” value [3] was 7.94.
For `CC(C)(Sc1cc(C(C)(C)C)c(O)c(C(C)(C)C)c1)Sc1cc(C(C)(C)C)c(OC(=O)CCC(=O)O)c(C(C)(C)C)c1` [Compound 31, 4-(2,6-di-tert-butyl-4-((2-((3,5-di-tert-butyl-4-hydroxyphenyl)thio)propan-2-yl)thio)phenoxy)-4-oxobutanoic acid, reference compound], the inhibition rate % [1] was 43.6%, the “Relative inhibition ability on free radicals” value [1] was 100.0 and the inhibition rate % [3] was 49.1%. The “avarage value of OD” value [3] was 7.39.
With `CC(C)(C)c1cc(SSc2cc(C(C)(C)C)c(O)c(C(C)(C)CCO)c2)cc(C(C)(C)C)c1O` [Compound 6, 2,6-di-tert-butyl-4-((3-(tert-butyl)-4-hydroxy-5-(4-hydroxy-2-methylbutan-2-yl)phenyl)disulfanediyl)phenol] the inhibition rate % [1] was 53.2%, the “Relative inhibition ability on free radicals” value [1] was 95.2 and the inhibition rate % [3] was 71.2%. The “avarage value of OD” value [3] was 6.54.
In the case of `CC(C)(Sc1cc(C(C)(C)C)c(O)c(C(C)(C)CCO)c1)Sc1cc(C(C)(C)C)c(O)c(C(C)(C)CCO)c1` [Compound 9, 4,4′-(propane-2,2-diylbis(thio))bis(2-(tert-butyl)-6-(4-hydroxy-2-methylbutan-2-yl)phenol)], the inhibition rate % [1] is reported as 55.1%, the “Relative inhibition ability on free radicals” value [1] is reported as 126.3 and the inhibition rate % [3] is reported as 62.9%. For the same molecule, the “avarage value of OD” value [3] was 6.86.
For `CC(C)(SCCC(=O)O)Sc1cc(C(C)(C)C)c(O)c(C(C)(C)C)c1` [Compound 4, 3-((2-((3,5-di-tert-butyl-4-hydroxyphenyl)thio)propan-2-yl)thio)propanoic acid], the inhibition rate % [1] was 24.1%, the “Relative inhibition ability on free radicals” value [1] was 55.2 and the inhibition rate % [3] was 84.4%. The “avarage value of OD” value [3] was 6.03.
